Earlier results, collected in PMC12181400, “Leveraging viral genome sequences and machine learning models for identification of potentially selective antiviral agents” (Communications Chemistry, 2025).
Counter-ions that a name gives are not always drawn. Like-named read-outs stand apart in the source and are kept apart here.

Assays:
Details in all cases: cited from earlier work
[1] = test system: cell viability (tox21-ap1-agonist-p1)
[2] = test system: cell viability (tox21-ar-mda-kb2-luc-agonist-p3)
[3] = test system: cell viability (tox21-are-bla-p1)
[4] = test system: cell viability (tox21-ar-mda-kb2-luc-antagonist-p2)
[5] = test system: cell viability (tox21-car-antagonist-p1)
[6] = test system: cell viability (tox21-car-agonist-p1)
[7] = curve rank −9 to 9, 0 = inactive, ref NCATS Tox21 public data browser

C[C@H](O)C(=O)Nc1c(I)c(C(=O)NC(CO)CO)c(I)c(C(=O)NC(CO)CO)c1I [Iopamidol]
0: tox21-ap1-agonist-p1-viability (curve rank) [1] | tox21-ar-mda-kb2-luc-agonist-p3-viability (curve rank) [2] | tox21-are-bla-p1-viability (curve rank) [3] | tox21-ar-mda-kb2-luc-antagonist-p2-viability (curve rank) [4] | tox21-car-antagonist-p1-viability (curve rank) [5] | tox21-car-agonist-p1-viability (curve rank) [6]

CCn1cc(C(=O)O)c(=O)c2cnc(N3CCNCC3)nc21 [Pipemidic acid]
0: tox21-ap1-agonist-p1-viability (curve rank) [1] | tox21-ar-mda-kb2-luc-agonist-p3-viability (curve rank) [2] | tox21-are-bla-p1-viability (curve rank) [3] | tox21-ar-mda-kb2-luc-antagonist-p2-viability (curve rank) [4] | tox21-car-antagonist-p1-viability (curve rank) [5] | tox21-car-agonist-p1-viability (curve rank) [6]

COc1ccc(OC)c(C(O)CNC(=O)CN)c1 (centres unmarked) [Midodrine hydrochloride]
0: tox21-ap1-agonist-p1-viability (curve rank) [1] | tox21-ar-mda-kb2-luc-agonist-p3-viability (curve rank) [2] | tox21-are-bla-p1-viability (curve rank) [3] | tox21-ar-mda-kb2-luc-antagonist-p2-viability (curve rank) [4] | tox21-car-antagonist-p1-viability (curve rank) [5] | tox21-car-agonist-p1-viability (curve rank) [6]

COc1ccc(-c2cc(=O)c3c(O)cc(O[C@@H]4O[C@H](CO[C@@H]5O[C@@H](C)[C@H](O)[C@@H](O)[C@H]5O)[C@@H](O)[C@H](O)[C@H]4O)cc3o2)cc1O [Diosmin]
0: tox21-ap1-agonist-p1-viability (curve rank) [1] | tox21-ar-mda-kb2-luc-agonist-p3-viability (curve rank) [2] | tox21-are-bla-p1-viability (curve rank) [3] | tox21-ar-mda-kb2-luc-antagonist-p2-viability (curve rank) [4] | tox21-car-antagonist-p1-viability (curve rank) [5] | tox21-car-agonist-p1-viability (curve rank) [6]

NC(=O)c1ccccc1O [Salicylamide]
0: tox21-ap1-agonist-p1-viability (curve rank) [1] | tox21-ar-mda-kb2-luc-agonist-p3-viability (curve rank) [2] | tox21-are-bla-p1-viability (curve rank) [3] | tox21-ar-mda-kb2-luc-antagonist-p2-viability (curve rank) [4] | tox21-car-antagonist-p1-viability (curve rank) [5] | tox21-car-agonist-p1-viability (curve rank) [6]

CCC1(c2ccccc2)C(=O)NCNC1=O [Primidone]
0: tox21-ap1-agonist-p1-viability (curve rank) [1] | tox21-ar-mda-kb2-luc-agonist-p3-viability (curve rank) [2] | tox21-are-bla-p1-viability (curve rank) [3] | tox21-ar-mda-kb2-luc-antagonist-p2-viability (curve rank) [4] | tox21-car-antagonist-p1-viability (curve rank) [5] | tox21-car-agonist-p1-viability (curve rank) [6]

Nc1ccc(S(=O)(=O)Nc2ccccn2)cc1 [Sulfapyridine]
0: tox21-ap1-agonist-p1-viability (curve rank) [1] | tox21-ar-mda-kb2-luc-agonist-p3-viability (curve rank) [2] | tox21-are-bla-p1-viability (curve rank) [3] | tox21-ar-mda-kb2-luc-antagonist-p2-viability (curve rank) [4] | tox21-car-antagonist-p1-viability (curve rank) [5] | tox21-car-agonist-p1-viability (curve rank) [6]

CC(C)(Oc1ccc(Cl)cc1)C(=O)O [Clofibric acid]
0: tox21-ap1-agonist-p1-viability (curve rank) [1] | tox21-ar-mda-kb2-luc-agonist-p3-viability (curve rank) [2] | tox21-are-bla-p1-viability (curve rank) [3] | tox21-ar-mda-kb2-luc-antagonist-p2-viability (curve rank) [4] | tox21-car-antagonist-p1-viability (curve rank) [5] | tox21-car-agonist-p1-viability (curve rank) [6]

CCCCC1(COC(=O)CCC(=O)O)C(=O)N(c2ccccc2)N(c2ccccc2)C1=O [Suxibuzone]
0: tox21-ap1-agonist-p1-viability (curve rank) [1] | tox21-ar-mda-kb2-luc-agonist-p3-viability (curve rank) [2] | tox21-are-bla-p1-viability (curve rank) [3] | tox21-ar-mda-kb2-luc-antagonist-p2-viability (curve rank) [4] | tox21-car-antagonist-p1-viability (curve rank) [5] | tox21-car-agonist-p1-viability (curve rank) [6]

O=C(NCCO[N+](=O)[O-])c1cccnc1 [Nicorandil]
0: tox21-ap1-agonist-p1-viability (curve rank) [1] | tox21-ar-mda-kb2-luc-agonist-p3-viability (curve rank) [2] | tox21-are-bla-p1-viability (curve rank) [3] | tox21-ar-mda-kb2-luc-antagonist-p2-viability (curve rank) [4] | tox21-car-antagonist-p1-viability (curve rank) [5] | tox21-car-agonist-p1-viability (curve rank) [6]

CC(=O)Nc1cc([As](=O)(O)O)ccc1O [Acetarsol]
0: tox21-ap1-agonist-p1-viability (curve rank) [1, 7] | tox21-ar-mda-kb2-luc-agonist-p3-viability (curve rank) [2, 7] | tox21-are-bla-p1-viability (curve rank) [3, 7] | tox21-ar-mda-kb2-luc-antagonist-p2-viability (curve rank) [4, 7] | tox21-car-antagonist-p1-viability (curve rank) [5, 7] | tox21-car-agonist-p1-viability (curve rank) [6, 7]

O=C(Oc1ccccc1C(=O)O)c1ccccc1O [Salsalate]
0: tox21-ap1-agonist-p1-viability (curve rank) [1] | tox21-ar-mda-kb2-luc-agonist-p3-viability (curve rank) [2] | tox21-are-bla-p1-viability (curve rank) [3] | tox21-ar-mda-kb2-luc-antagonist-p2-viability (curve rank) [4] | tox21-car-antagonist-p1-viability (curve rank) [5] | tox21-car-agonist-p1-viability (curve rank) [6]

C=CCNC(N)=S [Allylthiourea]
0: tox21-ap1-agonist-p1-viability (curve rank) [1, 7] | tox21-ar-mda-kb2-luc-agonist-p3-viability (curve rank) [2, 7] | tox21-are-bla-p1-viability (curve rank) [3, 7] | tox21-ar-mda-kb2-luc-antagonist-p2-viability (curve rank) [4, 7] | tox21-car-antagonist-p1-viability (curve rank) [5, 7] | tox21-car-agonist-p1-viability (curve rank) [6, 7]

CCN(Cc1ccncc1)C(=O)C(CO)c1ccccc1 (centres unmarked) [Tropicamide]
0: tox21-ap1-agonist-p1-viability (curve rank) [1, 7] | tox21-are-bla-p1-viability (curve rank) [3, 7] | tox21-car-antagonist-p1-viability (curve rank) [5, 7] | tox21-car-agonist-p1-viability (curve rank) [6, 7]

CCC(C)(CN(C)C)OC(=O)c1ccccc1.Cl (centres unmarked) [Amylocaine hydrochloride]
0: tox21-car-antagonist-p1-viability (curve rank) [5, 7]
